Series [1] relates to Lipid Peroxidation in Rat Brain Homogenate. To be noted: for Inhibitory Effect (%): final concentration 10^-4 M, 5% homogenate, pH 7.4, 37° C., 1 hour, vs DMSO reference, malonic dialdehyde by TBA method.
A further series is described as follows: Acute toxicity (LD50). The settings on record: in vivo, rat.
Series [2] deals with ischemic-reperfused rat heart. Description: Reducing activity against the size of infarction in ischemic-reperfused rat heart. It is filed as in vivo, rat (Wistar male). To be noted: i.v.; for Size of Infarction (% of left ventrical) / Inhibition (% of Control): 30 minutes after ligation; for Size of Infarction (% of left ventrical): mean ± SEM, control 35.0 ± 2.9. The procedure:
Reducing activity of α-EPC-Na(DL) against the size of infarction in ischemic-reperfused rat heart:
Wistar male rats (body weight […]) were anesthetized with pentobarbital and subjected to thoracetomy. The left anterior descending coronary artery (LAD) was ligated at its origin for 1 hour. Then, the ligation was released to allow reperfusion. After 30 to 60 minutes reperfusion, the chest was closed and the animals (rats) maintained in conscious state. After 24 hours, the animals (rats) were reanesthetized, and then the heart was excised. The left ventricles were cut parallel to the atrioventricular sulcus into slices. The slices were stained at 37° C. for 15 minutes using triphenyltetrazolium chloride, and the size of infarction was weighed.
α-EPC-Na dissolved in saline solution was administered into the femoral vein at doses of 0.3, 1 and 5 mg/kg 30 minutes after the ligation. For the control group, only saline solution was administered.

Here are results for 7 molecules from patent US4948786A, “Composition for treatment of ischemic disorder in organs” (Takeda Chemical Industries, Ltd., priority 1988, dated 1990).

Structures can show the parent of a compound that is named as a salt.

Turning to `CC(C)CCCC(C)CCCC(C)CCCC1(C)CCc2cc(OP(=O)(O)OC3=C(O)[C@@H]([C@@H](O)CO)OC3=O)ccc2O1` (mixture of isomers) [TPC-Na(DL), L-Ascorbic acid DL-tocoryl phosphate diester sodium salt], the “Inhibitory Effect (%)” value in series [1] was 35.7 ± 2.6%.
With `Cc1c(C)c2c(c(C)c1OP(=O)(O)OC1=C(O)[C@@H]([C@@H](O)CO)OC1=O)CCC(C)(CCCC(C)CCCC(C)CCCC(C)C)O2` (mixture of isomers) [α-EPC-Na(DL), L-Ascorbic acid, DL-α-tocopheryl phosphate diester sodium salt], the median lethal dose (LD50) in the series “Acute toxicity (LD50)” (sc, subcutaneous administration) was 737 mg/kg; in the series “Acute toxicity (LD50)” (oral administration), over 10000 mg/kg. For the same molecule, the results for the “Size of Infarction (% of left ventrical)” value in series [2] (0.3 mg/kg), in series [2] (1.0 mg/kg) and in series [2] (5.0 mg/kg) were 32.4 ± 4.3 % of left ventrical, 27.2 ± 2.8 % of left ventrical and 18.3 ± 1.1 % of left ventrical, respectively. Moreover, the “Inhibition (% of Control)” value in series [2] (1.0 mg/kg) is -22.3 % of Control; in series [2] (5.0 mg/kg), -47.7 % of Control. The “size of myocardial infarction, reduced to” value in series [2] (5 mg/kg) is listed as “about 50%”. Besides, the “reduction of the size of myocardial infarction (in words)” value in series [2] (0.3, 1 and 5 mg/kg) is “reduced the size of myocardial infarction dose-dependently”. Also, the “Inhibitory Effect (%)” value in series [1] came to 61.8 ± 38.1%.
Consider `Cc1cc(OP(=O)(O)OC2=C(O)[C@@H]([C@@H](O)CO)OC2=O)c(C)c2c1OC(C)(CCCC(C)CCCC(C)CCCC(C)C)CC2` (mixture of isomers) [β-EPC-K(DL), L-Ascorbic acid DL-β-tocopheryl phosphate diester potassium salt], for which the “Inhibitory Effect (%)” value in series [1] is on record as 58.9 ± 19.4%.
Still for that read-out and setting: the figure for `Cc1c(C)c2c(c(C)c1O)CCC(C)(CCCC(C)CCCC(C)CCCC(C)C)O2` (racemic) [DL-α-tocopherol, reference compound] is 50.8 ± 18.5%.
For the molecule `O=C1O[C@H]([C@@H](O)CO)C(O)=C1O` [L-ascorbic acid, reference compound], the “inhibition of lipid peroxidation (in words)” value in series [1] (10^-4 M, rat brain homogenate) is reported as “did not inhibit lipid peroxidation”. In addition, the “Inhibitory Effect (%)” value in series [1] is given as 1.6 ± 15.0%.
Consider `Cc1c(OP(=O)(O)OC2=C(O)[C@@H]([C@@H](O)CO)OC2=O)cc2c(c1C)O[C@](C)(CCC[C@H](C)CCC[C@H](C)CCCC(C)C)CC2` [γ-EPC-K(D), L-Ascorbic acid D-γ-tocopheryl phosphate diester potassium salt], for which the “Inhibitory Effect (%)” value in series [1] came to 62.0 ± 8.2%.
Turning to `Cc1cc(OP(=O)(O)OC2=C(O)[C@@H]([C@@H](O)CO)OC2=O)cc2c1O[C@](C)(CCC[C@H](C)CCC[C@H](C)CCCC(C)C)CC2` [δ-EPC-K(D), L-ascorbic acid D-δ-tocopheryl phosphate diester], the “Inhibitory Effect (%)” value in series [1] turned out to be 38.1 ± 8.3%.
